Assay results reported in patent US9725449B2, “Tricyclic compounds as anticancer agents” (BRISTOL-MYERS SQUIBB COMPANY, priority 2015, dated 2017).
pIC50: −log10 of the molar value.

Each molecule was assayed against BRD4 (Homo sapiens, UniProt O60885) (assay: Time resolved fluorescence resonance energy transfer (TR-FRET) binding assay, bromodomain BRD4). Conditions: one of the FRET assays described; read-out: FRET BRD4 IC50.

| Structure (SMILES) | pIC50 |
| --- | --- |
| [2H]C([2H])([2H])c1nnn(C)c1-c1cnc2c3ccc(C(C)(C)O)nc3n([C@H](c3ccccc3)C3CCOCC3)c2c1 [Example 175, 2-{5-[4-(^2H3)Methyl-1-methyl-1H-1,2,3-triazol-5-yl]-8-[(S)-oxan-4-yl(phenyl)methyl]-3,8,10-triazatricyclo[7.4.0.0^2,^7]trideca-1(9),2(7),3,5,10,12-hexaen-11-yl}propan-2-ol] | > 8.00 |
| [2H]C([2H])([2H])c1nnn(C)c1-c1cnc2c3cc(C(=O)OC)cnc3n([C@H](c3ccccc3)C3CCOCC3)c2c1 [Example 348, Methyl 5-[4-(^2H3)methyl-1-methyl-1H-1,2,3-triazol-5-yl]-8-[(S)-oxan-4-yl(phenyl)methyl]-3,8,10-triazatricyclo[7.4.0.0^2,^7]trideca-1(13),2(7),3,5,9,11-hexaene-12-carboxylate] | > 8.00 |
| COc1nnn(C)c1-c1cnc2c3ccc(-c4c(OC)nnn4C)nc3n([C@H](c3ccccc3)C3CCOCC3)c2c1 [Example 166, 5,11-Bis(4-methoxy-1-methyl-1H-1,2,3-triazol-5-yl)-8-[(S)-oxan-4-yl(phenyl)methyl]-3,8,10-triazatricyclo[7.4.0.0^2,^7]trideca-1(9),2(7),3,5,10,12-hexaene] | > 8.00 |
| Cc1nnn(C)c1-c1cnc2c3cncc(S(C)(=O)=O)c3n(C(c3ccccc3)C3CCC(F)(F)CC3)c2c1 (stereo not shown) [Example 289, 8-[(4,4-Difluorocyclohexyl)(phenyl)methyl]-5-(dimethyl-1H-1,2,3-triazol-5-yl)-10-methanesulfonyl-3,8,12-triazatricyclo[7.4.0.0^2,^7]trideca-1(13),2(7),3,5,9,11-hexaene] | > 5.82 |
| COc1ccc2c3ncc(-c4c(C)nnn4C)cc3n(C(c3cccc(F)c3)C3CCOCC3)c2n1 (racemic) [Example 16, 5-(Dimethyl-1H-1,2,3-triazol-5-yl)-8-[(3-fluorophenyl)(oxan-4-yl)methyl]-11-methoxy-3,8,10-triazatricyclo[7.4.0.0^2,^7]trideca-1(13),2(7),3,5,9,11-hexaene] | > 8.00 |
| [2H]C([2H])([2H])c1nnn(C)c1-c1cnc2c3c(N(C)CC)ncc(S(C)(=O)=O)c3n([C@H](c3ccccc3)C3CCOCC3)c2c1 [Example 115, N-Ethyl-10-methanesulfonyl-N-methyl-5-[4-(^2H3)methyl-1-methyl-1H-1,2,3-triazol-5-yl]-8-[(S)-oxan-4-yl(phenyl)methyl]-3,8,12-triazatricyclo[7.4.0.0^2,^7]trideca-1(13),2(7),3,5,9,11-hexaen-13-amine] | > 9.00 |
| [2H]C([2H])([2H])c1nnn(C)c1-c1cnc2c3c(OC)cncc3n([C@H](c3ccccc3)C3CCOCC3)c2c1 [Example 300, 13-Methoxy-5-[4-(^2H3)methyl-1-methyl-1H-1,2,3-triazol-5-yl]-8-[(S)-oxan-4-yl(phenyl)methyl]-3,8,11-triazatricyclo[7.4.0.0^2,^7]trideca-1(9),2(7),3,5,10,12-hexaene] | > 9.00 |
| [2H]C([2H])([2H])c1nnn(C)c1-c1cnc2c3c(OCC4CCCO4)ncc(S(C)(=O)=O)c3n([C@H](c3ccccc3)C3CCOCC3)c2c1 (stereo partly drawn) [Example 109, 10-Methanesulfonyl-5-[4-(^2H3)methyl-1-methyl-1H-1,2,3-triazol-5-yl]-8-[(S)-oxan-4-yl(phenyl)methyl]-13-[(2R)-oxolan-2-ylmethoxy]-3,8,12-triazatricyclo[7.4.0.0^2,^7]trideca-1(13),2(7),3,5,9,11-hexaene] | > 8.00 |
| Cc1nnn(C)c1-c1cnc2c3ccc(N4CCN(S(C)(=O)=O)CC4)nc3n([C@H](c3ccccc3)C3CCOCC3)c2c1 [Example 188, 5-(Dimethyl-1H-1,2,3-triazol-5-yl)-11-(4-methanesulfonylpiperazin-1-yl)-8-[(S)-oxan-4-yl(phenyl)methyl]-3,8,10-triazatricyclo[7.4.0.0^2,^7]trideca-1(9),2(7),3,5,10,12-hexaene] | > 9.00 |
| Cc1nnn(C)c1-c1cnc2c3ccc(NC(=O)C(C)C)nc3n([C@H](c3ccccc3F)C3CCOCC3)c2c1 [Example 275, N-[5-(Dimethyl-1H-1,2,3-triazol-5-yl)-8-[(S)-(2-fluorophenyl)(oxan-4-yl)methyl]-3,8,10-triazatricyclo[7.4.0.0^2,^7]trideca-1(13),2(7),3,5,9,11-hexaen-11-yl]-2-methylpropanamide] | > 8.00 |
| Cc1nnn(C)c1-c1cnc2c3ccc(S(=O)(=O)N4CCCC4)nc3n([C@H](c3ccccc3)C3CCOCC3)c2c1 [Example 196, 5-(Dimethyl-1H-1,2,3-triazol-5-yl)-8-[(S)-oxan-4-yl(phenyl)methyl]-11-(pyrrolidine-1-sulfonyl)-3,8,10-triazatricyclo[7.4.0.0^2,^7]trideca-1(9),2(7),3,5,10,12-hexaene] | > 8.00 |
| COc1ncc(S(C)(=O)=O)c2c1c1ncc(-c3c(C)nnn3C)cc1n2[C@H](c1ccccc1F)C1CCOCC1 [Example 50, 5-(Dimethyl-1H-1,2,3-triazol-5-yl)-8-[(S)-(2-fluorophenyl)(oxan-4-yl)methyl]-10-methanesulfonyl-13-methoxy-3,8,12-triazatricyclo[7.4.0.0^2,^7]trideca-1(13),2(7),3,5,9,11-hexaene] | > 9.00 |
| Cc1nnn(C)c1-c1cnc2c3c(O)ncc(S(C)(=O)=O)c3n([C@H](c3ccccc3)C3CCOCC3)c2c1 [Example 93, 5-(Dimethyl-1H-1,2,3-triazol-5-yl)-10-methanesulfonyl-8-[(S)-oxan-4-yl(phenyl)methyl]-3,8,12-triazatricyclo[7.4.0.0^2,^7]trideca-1(13),2(7),3,5,9,11-hexaen-13-ol] | > 8.00 |
| Cc1nnn(C)c1-c1cnc2c3ccc(N4CCS(=O)(=O)CC(C)C4)nc3n([C@H](c3ccccc3)C3CCOCC3)c2c1 (stereo partly drawn) [Example 211, 4-[5-(Dimethyl-1H-1,2,3-triazol-5-yl)-8-[(S)-oxan-4-yl(phenyl)methyl]-3,8,10-triazatricyclo[7.4.0.0^2,^7]trideca-1(9),2(7),3,5,10,12-hexaen-11-yl]-6-methyl-1λ^6,4-thiazepane-1,1-dione] | > 8.00 |
| [2H]C([2H])([2H])c1nnn(C)c1-c1cnc2c3cnc(Cl)cc3n(C(c3ncccc3F)C3CCOCC3)c2c1 (single isomer, unassigned) [Example 321] | > 8.00 |
| Cc1nnn(C)c1-c1cnc2c3cnc(Cl)cc3n(C(c3ncccc3F)C3CCOCC3)c2c1 (single isomer, unassigned) [Example 318] | > 8.00 |
| [2H]C([2H])([2H])Oc1ncc(S(C)(=O)=O)c2c1c1ncc(-c3c(C)noc3C([2H])([2H])[2H])cc1n2[C@H](c1ccccc1)C1CCOCC1 [Example 54, 10-Methanesulfonyl-13-(^2H3)methoxy-5-[5-(^2H3)methyl-3-methyl-1,2-oxazol-4-yl]-8-[(S)-oxan-4-yl(phenyl)methyl]-3,8,12-triazatricyclo[7.4.0.0^2,^7]trideca-1(13),2(7),3,5,9,11-hexaene] | > 8.00 |
| [2H]C([2H])([2H])c1nnn(C)c1-c1cnc2c3c(NCC(F)(F)F)ncc(S(C)(=O)=O)c3n([C@H](c3ncccc3F)C3CCOCC3)c2c1 [Example 341, 8-[(S)-(3-Fluoropyridin-2-yl)(oxan-4-yl)methyl]-10-methanesulfonyl-5-[4-(^2H3)methyl-1-methyl-1H-1,2,3-triazol-5-yl]-N-(2,2,2-trifluoroethyl)-3,8,12-triazatricyclo[7.4.0.0^2,^7]trideca-1(13),2(7),3,5,9,11-hexaen-13-amine] | > 9.00 |
| Cc1nnn(C)c1-c1cnc2c3ccnc(N4CCOCC4)c3n([C@H](c3ccccc3)C3CCOCC3)c2c1 [Example 7, 5-(Dimethyl-1H-1,2,3-triazol-5-yl)-10-(morpholin-4-yl)-8-[(S)-oxan-4-yl(phenyl)methyl]-3,8,11-triazatricyclo[7.4.0.0^2,^7]trideca-1(13),2(7),3,5,9,11-hexaene] | > 8.00 |
| [2H]C([2H])([2H])c1nnn(C)c1-c1cnc2c3cnc(C(C)(C)O)cc3n([C@H](c3ccccc3F)C3CCOCC3)c2c1 [Example 332] | > 8.00 |
| COc1nnn(C)c1-c1cnc2c3ccc(Cl)nc3n([C@H](c3ccccc3)C3CCOCC3)c2c1 [Example 167, 11-Chloro-5-(4-methoxy-1-methyl-1H-1,2,3-triazol-5-yl)-8-[(S)-oxan-4-yl(phenyl)methyl]-3,8,10-triazatricyclo[7.4.0.0^2,^7]trideca-1(9),2(7),3,5,10,12-hexaene] | > 5.82 |
| [2H]C([2H])([2H])c1nnn(C)c1-c1cnc2c3c(OCC)ncc(S(C)(=O)=O)c3n([C@H](c3ccccc3F)C3CCOCC3)c2c1 [Example 62, 13-Ethoxy-8-[(S)-(2-fluorophenyl)(oxan-4-yl)methyl]-10-methanesulfonyl-5-[4-(^2H3)methyl-1-methyl-1H-1,2,3-triazol-5-yl]-3,8,12-triazatricyclo[7.4.0.0^2,^7]trideca-1(13),2(7),3,5,9,11-hexaene] | > 9.00 |
| [2H]C([2H])([2H])c1nnn(C)c1-c1cnc2c3c(OC)ncc(S(C)(=O)=O)c3n(C(c3ncccc3F)C3CCOCC3)c2c1 (stereo not shown) [Example 64, 8-[(3-Fluoropyridin-2-yl)(oxan-4-yl)methyl]-10-methanesulfonyl-13-methoxy-5-[4-(^2H3)methyl-1-methyl-1H-1,2,3-triazol-5-yl]-3,8,12-triazatricyclo[7.4.0.0^2,^7]trideca-1(13),2(7),3,5,9,11-hexaene] | > 9.00 |
| [2H]C([2H])([2H])c1nnn(C)c1-c1cnc2c3c(OCC4CC4)nccc3n([C@H](c3ccccc3)C3CCOCC3)c2c1 [Example 130, 13-(Cyclopropylmethoxy)-5-[4-(^2H3)methyl-1-methyl-1H-1,2,3-triazol-5-yl]-8-[(S)-oxan-4-yl(phenyl)methyl]-3,8,12-triazatricyclo[7.4.0.0^2,^7]trideca-1(13),2(7),3,5,9,11-hexaene] | > 9.00 |
| COc1nccc2c1c1ncc(-c3c(C)nnn3C)cc1n2[C@H](c1ccccc1F)C1CCOCC1 [Example 30, 5-(Dimethyl-1H-1,2,3-triazol-5-yl)-8-[(S)-(2-fluorophenyl)(oxan-4-yl)methyl]-13-methoxy-3,8,12-triazatricyclo[7.4.0.0^2,^7]trideca-1(9),2(7),3,5,10,12-hexaene] | > 9.00 |
